According to patent publication US9079866B2, “Flap modulators” (JANSSEN PHARMACEUTICA NV, priority 2013, dated 2015):
Structures can show the parent of a compound that is named as a salt. Where two headings read alike, the source gives them in different places.

Key:
[1] = tested on: leukotriene pathway in human whole blood (LTB4 levels); experiment: Human whole blood assay (A23187-stimulated LTB4); type: cell-based; settings: Homo sapiens, read-out: LTB4 IC50 1:1
Summary of the method: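 Heparinised human whole blood, diluted 1:1 in RPMI, was pre-incubated with test compounds for 15 min at 37° Celsius, then stimulated with A23187 (7 μg/mL) for 30 min at 37° Celsius. Plasma LTB4 was measured by immunoassay kit; IC50 from 4-parameter fit; single replicate, at least one healthy donor.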

human FLAP = human FLAP (Homo sapiens (Human), UniProt P20292); experiment: FLAP binding assay (HTRF format)
Summary of the method: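 HTRF ratio read-out; two independent plates, samples in duplicate on each, values averaged across plates.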

[2] = human whole blood diluted 1:1 in RPMI, A23187-stimulated LTB4
[3] = human FLAP wild type, HTRF format, average of two plates, duplicates

Sequence of human FLAP (P20292 whole entry): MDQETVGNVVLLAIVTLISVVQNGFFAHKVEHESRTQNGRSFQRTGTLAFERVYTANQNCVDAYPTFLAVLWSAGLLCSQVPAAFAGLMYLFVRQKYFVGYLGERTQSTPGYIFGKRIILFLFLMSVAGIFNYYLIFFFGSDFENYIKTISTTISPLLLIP

Row | IC50 [1, 2] [nM] | Ki (human FLAP; [3]) [nM] | SMILES | Ki (human FLAP; read-out: FLAP Binding wild type HTRF Ki) [nM] | IC50 [1] [nM]
1 | 29 | 3 | Nc1ncc(-c2ccc(-c3ccc(C(F)(F)F)cc3S(=O)(=O)NCCO)cc2F)cn1 [Example 326, 4′-(2-Aminopyrimidin-5-yl)-3′-fluoro-N-(2-hydroxyethyl)-4-(trifluoromethyl)biphenyl-2-sulfonamide] | – | –
2 | 39 | 2 | CCNS(=O)(=O)c1cc(C(F)(F)F)ccc1-c1ccc(-c2cnc(N)nc2)c(F)c1 [Example 327, 4′-(2-Aminopyrimidin-5-yl)-N-ethyl-3′-fluoro-4-(trifluoromethyl)biphenyl-2-sulfonamide] | – | –
3 | 119 | 15 | CN1CCN(S(=O)(=O)c2cc(C(F)(F)F)ccc2-c2ccc(-c3cnc(N)nc3)c(F)c2)CC1 [Example 328, 5-{3-Fluoro-2′-[(4-methylpiperazin-1-yl)sulfonyl]-4′-(trifluoromethyl)biphenyl-4-yl}pyrimidin-2-amine] | – | –
4 | 66 | 12 | Nc1cnc(Sc2ccccc2-c2ccc(-c3cnc(N)nc3)c(F)c2)nc1 [Example 329, 5-{2′-[(5-Aminopyrimidin-2-yl)sulfanyl]-3-fluorobiphenyl-4-yl}pyrimidin-2-amine formate salt] | – | –
5 | 62 | 14 | Nc1ncc(-c2ccc(-c3ccccc3Sc3ncncc3N)cc2F)cn1 [Example 331, 5-{2′-[(5-Aminopyrimidin-4-yl)sulfanyl]-3-fluorobiphenyl-4-yl}pyrimidin-2-amine formate salt] | – | –
6 | 125 | 65 | Nc1ncc(-c2ccc(-c3ccccc3Sc3ncccn3)cc2F)cn1 [Example 332, 5-[3-Fluoro-2′-(pyrimidin-2-ylsulfanyl)biphenyl-4-yl]pyrimidin-2-amine hydrochloride] | – | –
7 | 671 | 45 | Nc1ncc(-c2ccc(-c3ccccc3Sc3cnccn3)cc2F)cn1 [Example 333, 5-[3-Fluoro-2′-(pyrazin-2-ylsulfanyl)biphenyl-4-yl]pyrimidin-2-amine hydrochloride] | – | –
8 | 67 | 12 | Nc1cc(Sc2ccccc2-c2ccc(-c3cnc(N)nc3)c(F)c2)ncn1 [Example 334, 5-{2′-[(6-Aminopyrimidin-4-yl)sulfanyl]-3-fluorobiphenyl-4-yl}pyrimidin-2-amine formate salt] | – | –
9 | 37 | 2 | Nc1ncc(-c2ccc(-c3ccccc3Sc3ccnc(N)n3)cc2F)cn1 [Example 335, 4-{[4′-(2-Aminopyrimidin-5-yl)-3′-fluorobiphenyl-2-yl]sulfanyl}pyrimidin-2-amine formate salt] | – | –
10 | 65 | 4 | Nc1cncc(Sc2ccccc2-c2ccc(-c3cnc(N)nc3)c(F)c2)n1 [Example 336, 5-{2′-[(6-Aminopyrazin-2-yl)sulfanyl]-3-fluorobiphenyl-4-yl}pyrimidin-2-amine formate salt] | – | –
11 | 117 | 2 | CC(C)(C)NS(=O)(=O)c1ccccc1-c1ccc(-c2ccc(N)nc2)c(F)c1 [Example 342, 4′-(6-Aminopyridin-3-yl)-N-(tert-butyl)-3′-fluoro-[1,1′-biphenyl]-2-sulfonamide] | – | –
12 | 57 | 4 | CCN(CC)S(=O)(=O)c1ccccc1-c1ccc(-c2ccc(N)nc2)c(F)c1 [Example 343, 4′-(6-Aminopyridin-3-yl)-N,N-diethyl-3′-fluoro-[1,1′-biphenyl]-2-sulfonamide] | – | –
13 | > 10000 | 81 | Nc1ccc(-c2ccc(-c3ccccc3S(=O)(=O)N3CCCC3)cc2F)cn1 [Example 344, 5-(3-Fluoro-2′-(pyrrolidin-1-ylsulfonyl)-[1,1′-biphenyl]-4-yl)pyridin-2-amine] | – | –
14 | 259 | 28 | Nc1ccc(-c2ccc(-c3ccccc3S(=O)(=O)N3CCCCC3)cc2F)cn1 [Example 345, 5-(3-Fluoro-2′-(piperidin-1-ylsulfonyl)-[1,1′-biphenyl]-4-yl)pyridin-2-amine] | – | –
15 | 95 | 5 | Nc1ccc(-c2ccc(-c3ccccc3S(=O)(=O)NC3CCCCC3)cc2F)cn1 [Example 346, 4′-(6-Aminopyridin-3-yl)-N-cyclohexyl-3′-fluoro-[1,1′-biphenyl]-2-sulfonamide] | – | –
16 | 106 | 5 | CC(C)CNS(=O)(=O)c1ccccc1-c1ccc(-c2ccc(N)nc2)c(F)c1 [Example 348, 4′-(6-Aminopyridin-3-yl)-3′-fluoro-N-iso-butyl-[1,1′-biphenyl]-2-sulfonamide] | – | –

Row | IC50 [1, 2] [nM] | Ki (human FLAP; [3]) [nM] | SMILES | Ki (human FLAP; read-out: FLAP Binding wild type HTRF Ki) [nM] | IC50 [1] [nM]
17 | 13 | 1 | CCC(C)(C)NS(=O)(=O)c1ccccc1-c1ccc(-c2ccc(N)nc2)c(F)c1 [Example 349, 4′-(6-Aminopyridin-3-yl)-3′-fluoro-N-(tert-pentyl)-[1,1′-biphenyl]-2-sulfonamide] | – | –
18 | 26 | 2 | CC(C)(NS(=O)(=O)c1ccccc1-c1ccc(-c2ccc(N)nc2)c(F)c1)C(F)(F)F [Example 350, 4′-(6-Aminopyridin-3-yl)-3′-fluoro-N-(1,1,1-trifluoro-2-methylpropan-2-yl)-[1,1′-biphenyl]-2-sulfonamide] | – | –
19 | 297 | 17 | Nc1ccc(-c2ccc(-c3ccccc3S(=O)(=O)N[C@@H](c3ccccc3)C(F)(F)F)cc2F)cn1 [Example 351, (S)-4′-(6-Aminopyridin-3-yl)-3′-fluoro-N-(2,2,2-trifluoro-1-phenylethyl)-[1,1′-biphenyl]-2-sulfonamide] | – | –
20 | 20 | 1 | CC1(NS(=O)(=O)c2ccccc2-c2ccc(-c3ccc(N)nc3)c(F)c2)CCC1 [Example 353, 4′-(6-Aminopyridin-3-yl)-3′-fluoro-N-(1-methylcyclobutyl)-[, 1′-biphenyl]-2-sulfonamide] | – | –
21 | 93 | 37 | Nc1ccc(-c2ccc(-c3ccccc3S(=O)(=O)N3CCS(=O)(=O)CC3)cc2F)cn1 [Example 354, 4-((4′-(6-Aminopyridin-3-yl)-3′-fluoro-[1,1′-biphenyl]-2-yl)sulfonyl)thiomorpholine 1,1-dioxide] | – | –
22 | 29 | 5 | C[C@H](NS(=O)(=O)c1ccccc1-c1ccc(-c2ccc(N)nc2)c(F)c1)C(F)(F)F [Example 355, (S)-4′-(6-Aminopyridin-3-yl)-3′-fluoro-N-(1,1,1-trifluoropropan-2-yl)-[1,1′-biphenyl]-2-sulfonamide] | – | –
23 | > 10000 | 55 | Nc1ccc(-c2ccc(-c3ccccc3S(=O)(=O)NCC3(O)CNC3)cc2F)cn1 [Example 358, 4′-(6-Aminopyridin-3-yl)-3′-fluoro-N-((3-hydroxyazetidin-3-yl)methyl)-[1,1′-biphenyl]-2-sulfonamide] | – | –
24 | 54 | 4 | Nc1ccc(-c2ccc(-c3ccccc3S(=O)(=O)N3CCC(CCO)CC3)cc2F)cn1 [Example 359, 2-(1-((4′-(6-Aminopyridin-3-yl)-3′-fluoro-[1,1′-biphenyl]-2-yl)sulfonyl)piperidin-4-yl)ethanol] | – | –
25 | 67 | 22 | Nc1ccc(-c2ccc(-c3ccccc3S(=O)(=O)N3CCC(O)CC3)cc2F)cn1 [Example 360, 1-((4′-(6-Aminopyridin-3-yl)-3′-fluoro-[1,1′-biphenyl]-2-yl)sulfonyl)piperidin-4-ol] | – | –
26 | 26 | 5 | Nc1ccc(-c2ccc(-c3ccccc3S(=O)(=O)N3CCC(CO)CC3)cc2F)cn1 [Example 361, (1-((4′-(6-Aminopyridin-3-yl)-3′-fluoro-[1,1′-biphenyl]-2-yl)sulfonyl)piperidin-4-yl)methanol] | – | –
27 | 47 | 1 | C[C@@H](CO)NS(=O)(=O)c1ccccc1-c1ccc(-c2cnc3[nH]ccc3c2)c(F)c1 [Example 362, 3′-Fluoro-N-[(1S)-2-hydroxy-1-methylethyl]-4′-(1H-pyrrolo[2,3-b]pyridin-5-yl)biphenyl-2-sulfonamide] | – | –
28 | 184 | 1 | C[C@H](CO)NS(=O)(=O)c1ccccc1-c1ccc(-c2cnc3[nH]ccc3c2)c(F)c1 [Example 363, 3′-Fluoro-N-[(1R)-2-hydroxy-1-methylethyl]-4′-(1H-pyrrolo[2,3-b]pyridin-5-yl)biphenyl-2-sulfonamide] | – | –
29 | 150 | 3 | O=C1NCC[C@@H]1NS(=O)(=O)c1ccccc1-c1ccc(-c2cnc3[nH]ccc3c2)c(F)c1 [Example 364, 3′-Fluoro-N-[(3S)-2-oxopyrrolidin-3-yl]-4′-(1H-pyrrolo[2,3-b]pyridin-5-yl)biphenyl-2-sulfonamide] | – | –
30 | 60 | 3 | O=S(=O)(c1ccccc1-c1ccc(-c2cnc3[nH]ccc3c2)c(F)c1)C1CC1 [Example 365, 5-[2′-(Cyclopropylsulfonyl)-3-fluorobiphenyl-4-yl]-1H-pyrrolo[2,3-b]pyridine] | – | –
31 | 40 | 1 | O=S(=O)(NCCO)c1ccccc1-c1ccc(-c2cnc3[nH]ccc3c2)c(F)c1 [Example 366, 3′-Fluoro-N-(2-hydroxyethyl)-4′-(1H-pyrrolo[2,3-b]pyridin-5-yl)biphenyl-2-sulfonamide] | – | –

Row | SMILES | IC50 [1, 2] [nM] | Ki (human FLAP; [3]) [nM] | Ki (human FLAP; read-out: FLAP Binding wild type HTRF Ki) [nM] | IC50 [1] [nM]
32 | Nc1ccnc(Sc2ccccc2-c2ccc(-c3cnc(N)nc3)c(F)c2)n1 [Example 330, 5-{2′-[(4-Aminopyrimidin-2-yl)sulfanyl]-3-fluorobiphenyl-4-yl}pyrimidin-2-amine formate salt] | 88 | – | 12 | –
33 | C[Si](C)(C)CCOCSc1ccccc1-c1ccc(-c2cnc(N)nc2)c(F)c1 [Example 340, 5-[3-Fluoro-2′-({[2-(trimethylsilyl)ethoxy]methyl}sulfanyl)biphenyl-4-yl]pyrimidin-2-amine] | – | 104 | – | 321
34 | Nc1ccc(-c2ccc(-c3ccccc3S(=O)(=O)N3C[C@@H]4C[C@H]3CO4)cc2F)cn1 [Example 356, 5-(2′-((1S,4S)-2-Oxa-5-azabicyclo[2.2.1]heptan-5-ylsulfonyl)-3-fluoro-[1,1′-biphenyl]-4-yl)pyridin-2-amine] | 107 | 32 | – | –
